We go through 9 compounds from patent US20110152246A1, “NOVEL INHIBITORS OF HEPATITIS C VIRUS REPLICATION” (InterMune, Inc., priority 2009, published 2011).

A word on the EC50: it is the midpoint of the concentration-response curve.

For the assay, the system named is Huh7 cells containing HCV replicons with an integrated luciferase reporter gene. The assay is described as follows: HCV Replicon Assay (luciferase reporter). In kind it is cell-based. Conditions: Hepatitis C virus, Huh-7; Huh7 HCV replicon cells, luciferase activity, approximately 48 hr incubation; read-out: EC50. The method, then:
Huh7 cells containing HCV replicons with an integrated luciferase reporter gene are maintained at 37° C. in 5% CO2 in Dulbecco's modified Eagle's medium (DMEM; Mediatech, Herndon, Va.) containing 10% heat-inactivated fetal bovine serum (FBS; Mediatech, Herndon, Va.), 2 mM L-glutamine (Cambrex Bioscience, Walkersville, Md.), 1% non essential amino acids (Lonza, Walkersville, Md.), 50 IU/mL penicillin (Mediatech, Herndon, Va.), […] streptomycin (Mediatech, Herndon, Va.) and 0.5 mg/mL G418 (Promega, Madison, Wis.). Cells are sub-divided 1:3 or 4 every 2-3 days.
24 h prior to the assay, Huh7 cells containing sub-genomic HCV replicons are collected, counted, and plated in Nunclon 96-well tissue culture plates (ThermoFisher, Rochester, N.Y.) at 5000 cells/well in […] standard maintenance medium (above) and incubated in the conditions above. To initiate the assay, culture medium is removed, and replaced with […] maintenance media lacking G418. Test compounds are serially diluted three-fold in dimethyl sulfoxide (DMSO) in two duplicate rows for each EC50 determination. These compound solutions are diluted ten-fold in DMEM lacking serum and G418. […] of these compound solutions in media are added to duplicate tissue culture plates. The final volume is 100 μL with a DMSO concentration of 1%. Compound concentrations are adjusted to appropriately define a dose response curve. Typical dilution series range from […] to 1.69 nM final concentrations to 1 nM to 16.9 fM final. Plates are incubated at 37° C. for approximately 48 hr.
Following incubation, media is removed from one of the two duplicate plates and replicon-reporter luciferase activity is measured using a Bright-Glo luciferase assay kit (Promega, Madison, Wis.) according to manufacturer's instructions. Semi-log plots of luciferase activity versus the logarithm of compound concentration are fit to a 4-parameter logistic function using XLfit software (IDBS Inc., Guildford, UK) to determine EC50.
On the technique in general: A replicon is a self-replicating genome or part of one, used to study replication in cells.
Regarding `COC(=O)N[C@H](C(=O)N1CCC[C@H]1c1nc(-c2ccc(-c3ccc(-c4c[nH]c([C@@H]5CCCN5C(=O)[C@@H](NC(=O)OC)C(C)C)n4)c4c3ccn4C)cc2)c[nH]1)C(C)C` [Compound 327], the EC50 is less than 10 nM. The figure for `COC(=O)N[C@H](C(=O)N1CCC[C@@]1(C)c1nc(-c2ccc(-c3ccc(-c4c[nH]c([C@]5(C)CCCN5C(=O)[C@@H](NC(=O)OC)C(C)C)n4)c4c3OCO4)cc2)c[nH]1)C(C)C` [Compound 328] is less than 10 nM; for `COC(=O)N[C@H](C(=O)N1CCC[C@@]1(C)c1nc(-c2ccc(-c3ccc(-c4c[nH]c([C@]5(C)CCCN5C(=O)[C@@H](NC(=O)OC)C(C)C)n4)c4scnc34)cc2)c[nH]1)C(C)C` [Compound 329] it is less than 10 nM.

`COC(=O)N[C@H](C(=O)N1CCC[C@H]1c1nc(-c2ccc(-c3ccc(-c4c[nH]c([C@@H]5CCCN5C(=O)[C@@H](NC(=O)OC)C(C)C)n4)c4[nH]cc(C)c34)cc2)c[nH]1)C(C)C` [Compound 330]: the EC50 was less than 10 nM.

Regarding `COC(=O)N[C@H](C(=O)N1CCC[C@H]1c1nc(-c2ccc3cc(-c4ccc5[nH]c([C@@H]6CCCN6C(=O)[C@@H](NC(=O)OC)C(C)C)nc5c4)ccc3c2)c[nH]1)C(C)C` [Compound 402], the EC50 is less than 10 nM. For `COC(=O)N[C@H](C(=O)N1CCC[C@H]1C(=O)Nc1ccc(-c2nc3ccc(NC(=O)[C@@H]4CCCN4C(=O)[C@@H](NC(=O)OC)C(C)C)cc3s2)cc1)C(C)C` [Compound 403], the EC50 was less than 10 nM. As for `COC(=O)N[C@H](C(=O)N1CCCC[C@H]1c1nc(-c2ccc3cc(-c4ccc5[nH]c([C@@H]6CCCCN6C(=O)[C@@H](NC(=O)OC)C(C)C)nc5c4)ccc3c2)c[nH]1)C(C)C` [Compound 418], the EC50 was less than 10 nM. Next, `COC(=O)N[C@H](C(=O)N1CCOC[C@H]1c1nc(-c2ccc3cc(-c4ccc5[nH]c([C@@H]6COCCN6C(=O)[C@@H](NC(=O)OC)C(C)C)nc5c4)ccc3c2)c[nH]1)C(C)C` [Compound 419]: less than 10 nM.

`CC(C)[C@H](Nc1ncccn1)C(=O)N1CCC[C@H]1c1nc(-c2ccc3cc(-c4ccc5[nH]c([C@@H]6CCCN6C(=O)[C@@H](Nc6ncccn6)C(C)C)nc5c4)ccc3c2)c[nH]1` [Compound 420]: the EC50 is less than 10 nM.
